The source made the active and inactive calls. No cut-off for these calls is given here.
Experiments:
[1] = Pro-apoptotic activity in human IGROV1-R10 cells transfected with Bcl-xL siRNA assessed as condensed nuclei at 25 uM measured after 24 hrs by DAPI staining based fluorescence microscopy analysis relative to control; type: functional
[2] = Pro-apoptotic activity in human IGROV1-R10 cells assessed as accumulation at sub G1 phase at 15 uM incubated for 24 hrs by propidium iodide staining based flow cytometry analysis (reference value: 2 % ); type: functional
[3] = Pro-apoptotic activity in human IGROV1-R10 cells transfected with Bcl-xL siRNA assessed as accumulation at sub G1 phase at 15 uM incubated for 6 hrs by propidium iodide staining based flow cytometry analysis relative to control; type: functional
[4] = system: IGROV1-R10; experiment: Pro-apoptotic activity in human IGROV1-R10 cells assessed as cleaved caspase-3 expression at 15 uM measured after 24 hrs in presence of ABT-737 by Western blot analysis; type: functional, cell-based
[5] = system: IGROV1-R10; experiment: Pro-apoptotic activity in human IGROV1-R10 cells transfected with Bak siRNA assessed as cleaved caspase-3 level at 15 uM incubated for 24 hrs in presence of ABT-737 by Western blot analysis; type: functional, cell-based
[6] = Pro-apoptotic activity in human IGROV1-R10 cells transfected with Bak siRNA assessed as accumulation at sub G1 phase at 15 uM incubated for 24 hrs by propidium iodide staining based flow cytometry analysis (reference value: 3.4%); type: functional
[7] = Pro-apoptotic activity in human IGROV1-R10 cells transfected with control siRNA assessed as accumulation at sub G1 phase at 25 uM incubated for 24 hrs by propidium iodide staining based flow cytometry analysis (reference value: 4.5% ); type: functional
[8] = Cytotoxicity against human IGROV1-R10 cells transfected with siMCL1 at 15 uM after 24 hrs by fluorescence microscopic analysis; type: cell-based; conditions: igrov1-r10, 24 h
[9] = system: IGROV1-R10; experiment: Pro-apoptotic activity in human IGROV1-R10 cells transfected with Bak siRNA assessed as cleaved PARP level at 15 uM incubated for 24 hrs in presence of ABT-737 by Western blot analysis; type: functional, cell-based
[10] = Pro-apoptotic activity in human IGROV1-R10 cells transfected with Bak and Bax siRNA assessed as accumulation at sub G1 phase at 15 uM incubated for 24 hrs in presence of ABT-737 by propidium iodide staining based flow cytometry analysis (reference value: 4.3% ); type: functional
[11] = Pro-apoptotic activity in human IGROV1-R10 cells transfected with Bax siRNA assessed as accumulation at sub G1 phase at 15 uM incubated for 24 hrs in presence of ABT-737 by propidium iodide staining based flow cytometry analysis (reference value: 3.2% ); type: functional
[12] = system: IGROV1-R10; experiment: Pro-apoptotic activity in human IGROV1-R10 cells transfected with Bcl-xL siRNA assessed as increase in cleaved caspase-3 expression at 25 uM measured after 24 hrs by Western blot analysis; type: functional, cell-based
[13] = system: A549; experiment: Pro-apoptotic activity in human A549 cells assessed as accumulation subG1 phase at 15 uM after 24 hrs in presence of ABT-737 by flow cytometry (reference value: 3.83%); type: functional
[14] = system: IGROV1-R10; experiment: Pro-apoptotic activity in human IGROV1-R10 cells transfected with Bcl-xL siRNA assessed as cleaved PARP expression at 15 uM incubated for 8 hrs by Western blot analysis; type: functional, cell-based
[15] = Pro-apoptotic activity in human IGROV1-R10 cells transfected with Bcl-xL siRNA assessed as accumulation at sub G1 phase at 15 uM incubated for 4 hrs by propidium iodide staining based flow cytometry analysis relative to control; type: functional
[16] = Pro-apoptotic activity in human IGROV1-R10 cells transfected with Bcl-xL siRNA assessed as accumulation at sub G1 phase at 25 uM incubated for 24 hrs by propidium iodide staining based flow cytometry analysis (reference value: 17% ); type: functional
[17] = Pro-apoptotic activity in human IGROV1-R10 cells transfected with Bcl-xL siRNA assessed as accumulation at sub G1 phase at 15 uM incubated for 24 hrs by propidium iodide staining based flow cytometry analysis relative to control; type: functional
[18] = system: IGROV1-R10; experiment: Induction of apoptosis in human IGROV1-R10 cells assessed as up regulation of NOXA by Western blot analysis; type: functional, cell-based
[19] = Pro-apoptotic activity in human IGROV1-R10 cells transfected with Bax siRNA assessed as accumulation at sub G1 phase at 15 uM incubated for 24 hrs by propidium iodide staining based flow cytometry analysis (reference value: 3.2% ); type: functional
[20] = system: IGROV1-R10; experiment: Pro-apoptotic activity in human IGROV1-R10 cells assessed as cleaved PARP expression at 15 uM measured after 24 hrs in presence of ABT-737 by Western blot analysis; type: functional, cell-based
[21] = Pro-apoptotic activity in human IGROV1-R10 cells transfected with Bak siRNA assessed as accumulation at sub G1 phase at 15 uM incubated for 24 hrs in presence of ABT-737 by propidium iodide staining based flow cytometry analysis (reference value: 3.4% ); type: functional
[22] = Pro-apoptotic activity in human IGROV1-R10 cells transfected with Bcl-xL siRNA assessed as accumulation at sub G1 phase at 15 uM incubated for 12 hrs by propidium iodide staining based flow cytometry analysis relative to control; type: functional
[23] = Pro-apoptotic activity in human IGROV1-R10 cells transfected with Bcl-xL siRNA assessed as accumulation at sub G1 phase at 15 uM incubated for 8 hrs by propidium iodide staining based flow cytometry analysis relative to control; type: functional
[24] = system: SK-OV-3; experiment: Pro-apoptotic activity in human SKOV3 cells assessed as increase in caspase3/7 positive cells at 15 uM measured after 24 hrs in presence of ABT-737 by DAPI staining based fluorescence microscopy analysis; type: functional, cell-based
[25] = Pro-apoptotic activity in human IGROV1-R10 cells assessed as accumulation at sub G1 phase at 10 uM incubated for 24 hrs by propidium iodide staining based flow cytometry analysis (reference value: 2 % ); type: functional
[26] = system: IGROV1-R10; experiment: Pro-apoptotic activity in human IGROV1-R10 cells transfected with Bcl-xL siRNA assessed as cleaved caspase-3 expression at 15 uM incubated for 8 hrs by Western blot analysis; type: functional, cell-based
[27] = system: A2780; experiment: Pro-apoptotic activity in human A2780 cells assessed as increase in caspase3/7 positive cells at 15 uM measured after 24 hrs in presence of ABT-737 by DAPI staining based fluorescence microscopy analysis; type: functional, cell-based
[28] = Pro-apoptotic activity in human IGROV1-R10 cells assessed as accumulation at sub G1 phase at 25 uM incubated for 24 hrs in presence of ABT-737 by propidium iodide staining based flow cytometry analysis (reference value: 21.2% ); type: functional
[29] = system: IGROV1-R10; experiment: Pro-apoptotic activity in human IGROV1-R10 cells transfected with Bcl-xL siRNA assessed as morphological alteration at 25 uM measured after 24 hrs by DAPI staining based fluorescence microscopy analysis; type: functional, cell-based
[30] = Pro-apoptotic activity in human IGROV1-R10 cells assessed as accumulation at sub G1 phase at 25 uM incubated for 24 hrs by propidium iodide staining based flow cytometry analysis (reference value: 2.8% ); type: functional

Cc1cc(-c2ncc(-c3cccnc3)cc2/C=C/c2ccccc2)cnc1-c1cccc(C/C(N)=N/O)c1
Activity [1]: 91.3% | Activity [2]: 2.8% | Activity [3]: 19.3% | Activity [4]: Active | Activity [5]: inactive | Activity [6]: 6.8% | Activity [7]: 47.8% | Activity [8]: Non-Toxic | Activity [9]: inactive | Activity [10]: 27.9% | Activity [11]: 56.7% | Activity [12]: Active | Activity [13]: 68.86% | Activity [14]: Active | Activity [15]: 14.1% | Activity [16]: 59% | Activity [17]: 64.8% | Activity [18]: Active | Activity [19]: 7% | Activity [20]: Active | Activity [21]: 41% | Activity [22]: 52.2% | Activity [23]: 35.2% | Activity [24]: Active | Activity [25]: 2.2% | Activity [26]: Active | Activity [27]: Active | Activity [28]: 55.75% | Activity [29]: Active | Activity [30]: 40.69%
